{
  "source": "patent US20260256922A1",
  "about": "“PRODRUGS USEFUL FOR REDUCING ANTHRACYCLINE CARDIOTOXICITY” (WAKE FOREST UNIVERSITY HEALTH SCIENCES, priority 2022, published 2026)",
  "key": {"Nrf2": {"test_system": "Nrf2", "assay": "Nrf2 and HO-1 immunoblots in H9C2 cells", "format": "cell-based, rat", "conditions": "H9C2, relative to DMSO vehicle", "description": "The bar graphs below represent the mean±SEM. Results were statistically different between c1 and DOX in both cases (p=0.002 and p=0.019), and more marginally so between c1 and DMSO (p=0.011 and p.=0.025), for Nrf2 and HO-1, respectively."}, "caspase-3": {"test_system": "caspase-3", "assay": "Caspase-3 cleavage immunoblot in H9C2 cells", "conditions": "24 h", "description": "FIG. 6. […] H9C2 cells in culture were treated for 24 hr with c1, c2, DOX or vehicle (DMSO), then harvested into lysis buffer and immunoblotted for caspase-3. Data analyzed by ImageJ were used to assess the percent of the two bands present as the lower band.\nWe next evaluated apoptotic signaling through caspase-3 cleavage at 24 h to compare the experimental compounds.\nTo evaluate levels of caspase cleavage (using an antibody recognizing both cleaved and uncleaved, Cell Signaling, cat #9662), Nrf2 (antibody from Thermo Fisher, cat #PA5-27882), and HO-1 (antibody from Proteintech, cat #10701-1-AP), H9C2 cells were plated at a density of 450,000 per well in a 24-well plate, then treated 24 h later with 10 or 20 µM DOX and incubated another 24 h before harvesting. For some samples, 100 mM hydroxocobalamin (HO-Cbl) was added 5 min before drug treatment. Cells were harvested by removing media (and recovering any non-adherent cells by centrifugation for 5 min at 10,600×g, discarding the supernatant), and combining that with the 120 μL of lysis buffer added to each well. Lysis buffer [50 mM Tris-HCl at pH 8.0, with 100 mM NaCl, 100 µM diethylene triamine pentaacetic acid (DTPA), 20 mM β-glycerophosphate, 0.1% SDS, 0.5% Na Desoxycholate, and 0.5% Triton-X-100] was prepared by freshly adding protease and phosphatase inhibitors before use (1 mM PMSF, 10 μg/mL aprotinin, 1 mM Na3VO4, 10 mM NaF and 10 μg/mL leupeptin). Samples were further incubated on ice for 30 min, then centrifuged at high speed (20,800×g for 10 min) to remove cell debris, and supernatants were mixed with 5×SDS protein sample buffer for Western blot analysis following resolution of 40 μg per sample on 10% SDS-polyacrylamide gels. Protein concentrations of supernatants were determined using a BCA assay (Pierce). Antibodies were used at dilutions of 1:1000 (for HO-1 and caspase-3) or 1:3000 (for Nrf2)."}, "mitochondrial ROS": {"test_system": "mitochondrial ROS", "assay": "Mitochondrial ROS in cardiomyoblasts", "conditions": "compared with DOX"}, "[1]": {"test_system": "4T1 mouse breast cancer cells", "assay": "LDH release cytotoxicity assay in 4T1 cells", "format": "cell-based", "conditions": "10 or 20 μM, 24 or 48 h, other than the lowest dose and shortest time", "description": "FIG. 8. Cytotoxicity of DOX and prodrugs in 4T1 mouse breast cancer cells.\nDOX is a known cytotoxic agent used against 4T1 triple-negative breast cancer cells grown in culture or injected orthotopically into mouse mammary fat pads to initiate the development of tumors.^52,53 As an initial test to see if c1 could retain the cytotoxic properties of DOX toward tumor-forming 4T1 cells, we conducted LDH assays to assess cytotoxicity of DOX, c1 and c2 treatments."}, "[2]": {"assay": "Time-dependent DOX release from prodrugs in presence of H2O2 (LCMS)", "format": "physicochemical", "conditions": "prodrug 10 μM, H2O2 10 μM, ammonium bicarbonate buffer 0.1 M pH 7.4, room temperature, over two hours", "description": "FIG. 1. Time-course for DOX release from prodrugs (10 μM) in ammonium bicarbonate buffer (0.1 M, pH 7.4) at room temperature and in the presence of H2O2 (10 μM). A calibration curve was used to determine the concentration of free DOX at each time point by LCMS. Plotted as the mean±standard error of the mean (SEM) from three independent experiments.\nTo confirm this reactivity, we incubated c1 (10 μM) with H2O2 (10 μM) at room temperature in ammonium bicarbonate buffer (0.1 M, pH 7.4). At various time points, an aliquot was removed and analyzed by LCMS. Using a calibration curve, we determined the percentage of released DOX over the course of two hours. […] For comparison, we also assessed the reactivity of c2 towards the same concentration of peroxides. Like c1, c2 also functioned as an H2O2-activated DOX prodrug, but with faster kinetics, as quantitative release of free DOX was realized within 60 min.\nA stock solution of c1 (or c2, 10 mM) in DMSO and H2O2 (10 mM) in ammonium bicarbonate buffer (0.1M, pH 7.4) were prepared immediately prior to use. […] At various time points (0 min, 10 min, 35 min, 60 min, 80 min, 100 min, 120 min), a 1 mL (inject volume 60 μL) aliquot was removed and analyzed by LC-MS (using a C18 analytical column and eluting at 0.4 mL/min with a linear gradient (20-90% v/v) MeOH/H2O (0-2 min), followed by 90% v/v MeOH/H2O (2-19 min)). […]"}},
  "note": "Entries after “also recorded” stand apart in the source; their conditions may differ.",
  "data": [
    {"smiles": "COc1cccc2c1C(=O)c1c(O)c3c(c(O)c1C2=O)C[C@@](O)(C(=O)CO)C[C@@H]3O[C@H]1C[C@H](NC(=S)OCc2ccc(B3OC(C)(C)C(C)(C)O3)cc2)[C@H](O)[C@H](C)O1", "note": "[c1]", "values": [
      {"measurement": "HO-1 expression (immunoblot)", "setting": "Nrf2", "value": "largely preserved Nrf2 activation and HO-1 expression; also recorded: only moderately suppressive"},
      {"measurement": "Nrf2 activation (immunoblot)", "setting": "Nrf2", "value": "largely preserved Nrf2 activation and HO-1 expression; also recorded: only moderately suppressive"},
      {"measurement": "caspase-3 cleavage with H2S scavenger hydroxocobalamin", "setting": "caspase-3; H9C2, 10 μM drug, 100 mM hydroxocobalamin added 5 min prior", "value": "much more cleavage of caspase-3 than in its absence"},
      {"measurement": "caspase-3 cleavage", "setting": "caspase-3; H9C2, 10 or 20 μM", "value": "neither c1 nor c2 at either 10 or 20 UM caused notable caspase-3 cleavage"},
      {"measurement": "mitochondrial ROS levels", "setting": "mitochondrial ROS", "value": "lower levels of mitochondrial ROS"},
      {"measurement": "cytotoxicity (LDH release)", "setting": "[1]", "value": "comparable, sometimes less and sometimes more, toxicity relative to DOX"},
      {"measurement": "percentage of released DOX", "setting": "[2]", "value": "greater than 70%"}
    ]}
  ]
}
